The values below come from patent US12662513B2, “Peptidic modulators of quorum sensing in Staphylococcus epidermidis” (priority 2016, dated 2026).

For assay [1], the system named is AgrC I-IV receptors in S. aureus Groups-I-IV. Put plainly: Fluorescence (GFP) reporter strain assays, S. aureus Groups-I-IV. In kind it is cell-based. Particulars: 100 nM unless noted. The text has this: (§1) Similar to the cross-group inhibition observed between different agr groups of the same species, this cross-species inhibitory effect has no known biological role, but is hypothesized to provide a competitive advantage on a host (18, 46). Thus, AIP analogs described herein were examined to identify potential species-specific inhibitors that target either S. epidermidis Group-I or S. aureus Groups-I-IV.
(§2) Biological reagents, strains, and general methods. All standard reagents were purchased from commercial sources and used according to enclosed instructions. The S. epidermidis fluorescence reporter strains AH3408 (Group-I), AH3567 (Group-II), and AH3409 (Group-III) were cultured in Tryptic Soy Broth (TSB, from Sigma) augmented with 10 μg/mL of erythromycin (36). […] The S. aureus fluorescence reporter strains AH1677 (Group-I), AH430 (Group-II), AH1747 (Group-III), and AH1872 (Group-IV) were cultured in Brain Heart Infusion (BHI, from Teknova) augmented with 10 μg/mL of chloramphenicol (65). […] Absorbance and fluorescence measurements were obtained using a Biotek Synergy 2 microplate reader operating Gen5 data analysis software. IC50 values and EC50 values were determined from sigmoidal curve fits using GraphPad Prism software (v. 6.0).
(§3) Fluorescence reporter assay protocol. […]
(§4) The remaining steps of the fluorescence assay were the same as above.

Another assay has as its target AgrC-I receptor (Staphylococcus epidermidis, UniProt Q5HMY3). Put plainly: cell-based. It counts as cell-based, S. epidermidis. The conditions noted are these: for Mode/strength of activity toward AgrC-I (Group I), in words: dose response; for Activity toward Group-I at lower concentration, in words: single concentration 100 nM (or 1 μM). The procedure:
The initial set of 14 analogs (listed in Table 1) was synthesized using solid-phase peptide chemistry and purified to homogeneity using previously established HPLC methods (59). Each analog was tested for its ability to modulate the activity of the AgrC-I receptor using a wild-type S. epidermidis Group-I fluorescence reporter strain. This strain contained a reporter plasmid encoding a gfp gene fused to the P3 promoter found upstream of RNAIII (36).
(§5) Biological reagents, strains, and general methods. All standard reagents were purchased from commercial sources and used according to enclosed instructions. The S. epidermidis fluorescence reporter strains AH3408 (Group-I), AH3567 (Group-II), and AH3409 (Group-III) were cultured in Tryptic Soy Broth (TSB, from Sigma) augmented with 10 μg/mL of erythromycin (36). The S. epidermidis wild-type strain RP62A (Group-I) was cultured in TSB (from Sigma or EMD Millipore). The S. aureus fluorescence reporter strains AH1677 (Group-I), AH430 (Group-II), AH1747 (Group-III), and AH1872 (Group-IV) were cultured in Brain Heart Infusion (BHI, from Teknova) augmented with 10 μg/mL of chloramphenicol (65). All cultures were grown at 37° C. with shaking (200 rpm) unless noted otherwise. Absorbance and fluorescence measurements were obtained using a Biotek Synergy 2 microplate reader operating Gen5 data analysis software. IC50 values and EC50 values were determined from sigmoidal curve fits using GraphPad Prism software (v. 6.0).
(§6) Fluorescence reporter assay protocol. […] Each peptide solution was tested in triplicate. […] Plates were then incubated at 37° C. for 24 h. Fluorescence (EX 500 nm/EM 540 nm) and OD600 of each well was measured using a plate reader, and the fluorescence values were normalized to the DMSO control.
as §4

The test system of a further assay is AgrC-II. The conditions noted are these: for Activity toward Group-II at lower concentration, in words: single concentration 100 nM (or 1 μM).
Excerpt: (§7) However, the biological significance of this agr interference remains unclear, although it has been hypothesized to potentially play a role in competition between different groups in a mixed bacteria milieu (18). […] To this end, the AIP analogs discussed above were screened in GFP reporter strains of Groups-II and -III S. epidermidis to complement the Group-I S. epidermidis data in Tables 1 and 2 (see Methods; FIGS. 7A and 7B).
as §5, §6, §4

Assay [2] relates to S. epidermidis Group-I RP62A biofilm. As for the experimental part:
as §5
Crystal violet biofilm assay protocol. […] Each solution was tested in triplicate.

The next assay deals with AgrC-III. Particulars: for Activity toward Group-III at lower concentration, in words: single concentration 100 nM (or 1 μM).
Excerpt: as §7, §5, §6, §4

Assay [3] relates to agr system of S. aureus Group-III. Put plainly: Fluorescence (GFP) reporter strain assay, S. aureus Group-III. In kind it is cell-based. Particulars: 100 nM unless noted.
Excerpt: as §1, §2, §3, §4

[4] abbreviates: dose response antagonism assay, FIGS. 3A/3B.

Entries after “also recorded” stand apart in the source; their conditions may differ. Bridge positions count the residues as written; N and C are the ends. Ends that are not written are not given here. Peptide text beside a SMILES is read from it.

AgrC-I receptor, sequence (Q5HMY3 entry or part of it): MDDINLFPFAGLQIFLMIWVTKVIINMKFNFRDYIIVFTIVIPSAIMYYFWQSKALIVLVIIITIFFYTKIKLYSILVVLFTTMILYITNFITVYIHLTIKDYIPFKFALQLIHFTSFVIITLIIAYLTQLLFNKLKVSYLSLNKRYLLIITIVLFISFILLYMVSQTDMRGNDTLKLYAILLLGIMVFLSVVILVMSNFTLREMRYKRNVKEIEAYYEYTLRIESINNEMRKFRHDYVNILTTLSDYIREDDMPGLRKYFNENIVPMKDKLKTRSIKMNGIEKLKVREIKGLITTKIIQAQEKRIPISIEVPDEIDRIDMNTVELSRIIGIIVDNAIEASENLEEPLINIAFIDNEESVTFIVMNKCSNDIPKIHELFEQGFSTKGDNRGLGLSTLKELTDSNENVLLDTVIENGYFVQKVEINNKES

With “I-N-(C-A-F-L-L) (INCAFLL; bridge 3-C; also: thiolactone between Cys3 side chain and C-terminus) [S. aureus AIP-III D4A, reference compound]”, in assay [1], the “Effect on agr activity in S. aureus Groups-I-IV, in words” value is “potent pan-group inhibitor”. For the same compound, the “EC50 in AgrC-I” value in the assay with AgrC-I receptor (activation dose response in the presence of 50 nM S. epidermidis AIP-II) was “Inactive^c”. Moreover, the “IC50 in AgrC-I” value in the assay with AgrC-I receptor (antagonism dose response, peptide alone, Group-I GFP reporter strain, 24 h) was “Inactive^c”. Also, in the assay with AgrC-I receptor, the “Mode/strength of activity toward AgrC-I (Group I), in words” value (from here on “Mode/strength of activity toward AgrC-I”) was “largely inactive” and the “Activity toward Group-I at lower concentration, in words” value is “inactive”. Besides, the “Activity toward Group-II at lower concentration, in words” value with AgrC-II is given as “inhibiting exclusively Group-II”.

Turning to `C[C@H](N)C(=O)N[C@@H](CO)C(=O)N[C@@H](C)C(=O)N[C@H]1CSC(=O)[C@H](Cc2ccccc2)NC(=O)[C@H](Cc2ccc(O)cc2)NC(=O)[C@H](C)NC(=O)[C@H](CO)NC1=O` [AIP-I D1AS6AV3AA5S, A-S-A-(C-S-A-Y-F)] (H-ASACSAYF; thioester 4-C), the “Effect on biofilm growth, in words” value in assay [2] (10 μM, 24 h) is listed as “did not increase biofilm growth”. Further, the “Mode/strength of activity toward AgrC-I” value on AgrC-I receptor is given as “analogous potency as the parent triple mutant”. The “IC50 against AgrC-II, in words” value in the assay with AgrC-II (setting [4]) is “subnanomolar to low nanomolar range”. In addition, the “Activity toward Group-II at lower concentration, in words” value with AgrC-II is on record as “strongly inhibited”. The “IC50 against AgrC-III, in words” value with AgrC-III (setting [4]) is “subnanomolar to low nanomolar range”. Also, the “Activity toward Group-III at lower concentration, in words” value in the assay on AgrC-III was “strongly inhibited”.

As for `CC(C)C[C@@H]1NC(=O)[C@H](Cc2ccc(O)cc2)NC(=O)[C@H](CC(N)=O)NC(=O)[C@H](CO)NC(=O)[C@@H](NC(=O)[C@@H]2CCCN2C(=O)[C@H](CC(N)=O)NC(=O)[C@H](Cc2ccc(O)cc2)NC(=O)[C@@H](N)CCCCN)CSC1=O` [AIP-II 9aa, K-Y-N-P-(C-S-N-Y-L)] (H-KYNPCSNYL; thioester 5-C), the “Activity toward Group-I at lower concentration, in words” value at AgrC-I receptor is on record as “inhibited; also recorded: largely an inhibitor specific to S. epidermidis Group-I”. For the same compound, in the assay on AgrC-II, the “Activity toward Group-II at lower concentration, in words” value is “highly active agonist”. In the assay with AgrC-III, the “Activity toward Group-III at lower concentration, in words” value was “inactive”. In assay [3], the “Inhibitory activity in S. aureus Group-III, in words” value is “weak inhibitory activity”.

By inhibition is commonly meant the relative decrease from the control value, in per cent. Regarding `CC(C)C[C@@H]1NC(=O)[C@H](Cc2ccc(O)cc2)NC(=O)[C@H](CC(N)=O)NC(=O)[C@H](CO)NC(=O)[C@@H](NC(=O)[C@@H]2CCCN2C(=O)[C@H](CC(N)=O)NC(=O)[C@@H](N)Cc2ccc(O)cc2)CSC1=O` [AIP-II 8aa, Y-N-P-(C-S-N-Y-L)] (H-YNPCSNYL; thioester 4-C), the “Effect on agr activity in S. aureus Groups-I-IV, in words” value in assay [1] was “without significantly affecting agr activity”. At AgrC-I receptor, the “Mode/strength of activity toward AgrC-I” value is “potency similar to the parent AIP-II” and the “Activity toward Group-I at lower concentration, in words” value is “remained active; also recorded: selectively inhibited”. Besides, the inhibition at 10 µM at AgrC-I receptor (read-out: Inhibition of AgrC-I (inhibiting to ~%)) was about 75%. Besides, the “Activity toward Group-II at lower concentration, in words” value with AgrC-II is “inhibitory activity against Group-II decreased”. For the same compound, the “Activity against Group-III, in words” value with AgrC-III (single concentration 10 μM) was “inactive”.

Usually IC50 stands for the point on the concentration scale where inhibition reaches its midpoint. As to `CC(C)[C@H](NC(=O)[C@H](CO)NC(=O)[C@@H](N)CC(=O)O)C(=O)N[C@H]1CSC(=O)[C@H](Cc2ccccc2)NC(=O)[C@H](Cc2ccc(O)cc2)NC(=O)[C@H](CO)NC(=O)[C@H](C)NC1=O` [AIP-I, D-S-V-(C-A-S-Y-F), reference compound] (H-DSVCASYF; thioester 4-C), the IC50 in assay [2] (read-out: IC50 of biofilm growth inhibition, 24 h static, CV staining) is 99 nM.
